Laboratory results as given in patent US8173631B2, “Cyclic amine compounds” (Daiichi Sankyo Company, Limited, priority 2008, dated 2012).

Target: T1, human calcium-sensing receptor (CaSR) (Homo sapiens, UniProt P41180)
T1 construct: expressed in transfected cells
T1 sequence (P41180 20-1078): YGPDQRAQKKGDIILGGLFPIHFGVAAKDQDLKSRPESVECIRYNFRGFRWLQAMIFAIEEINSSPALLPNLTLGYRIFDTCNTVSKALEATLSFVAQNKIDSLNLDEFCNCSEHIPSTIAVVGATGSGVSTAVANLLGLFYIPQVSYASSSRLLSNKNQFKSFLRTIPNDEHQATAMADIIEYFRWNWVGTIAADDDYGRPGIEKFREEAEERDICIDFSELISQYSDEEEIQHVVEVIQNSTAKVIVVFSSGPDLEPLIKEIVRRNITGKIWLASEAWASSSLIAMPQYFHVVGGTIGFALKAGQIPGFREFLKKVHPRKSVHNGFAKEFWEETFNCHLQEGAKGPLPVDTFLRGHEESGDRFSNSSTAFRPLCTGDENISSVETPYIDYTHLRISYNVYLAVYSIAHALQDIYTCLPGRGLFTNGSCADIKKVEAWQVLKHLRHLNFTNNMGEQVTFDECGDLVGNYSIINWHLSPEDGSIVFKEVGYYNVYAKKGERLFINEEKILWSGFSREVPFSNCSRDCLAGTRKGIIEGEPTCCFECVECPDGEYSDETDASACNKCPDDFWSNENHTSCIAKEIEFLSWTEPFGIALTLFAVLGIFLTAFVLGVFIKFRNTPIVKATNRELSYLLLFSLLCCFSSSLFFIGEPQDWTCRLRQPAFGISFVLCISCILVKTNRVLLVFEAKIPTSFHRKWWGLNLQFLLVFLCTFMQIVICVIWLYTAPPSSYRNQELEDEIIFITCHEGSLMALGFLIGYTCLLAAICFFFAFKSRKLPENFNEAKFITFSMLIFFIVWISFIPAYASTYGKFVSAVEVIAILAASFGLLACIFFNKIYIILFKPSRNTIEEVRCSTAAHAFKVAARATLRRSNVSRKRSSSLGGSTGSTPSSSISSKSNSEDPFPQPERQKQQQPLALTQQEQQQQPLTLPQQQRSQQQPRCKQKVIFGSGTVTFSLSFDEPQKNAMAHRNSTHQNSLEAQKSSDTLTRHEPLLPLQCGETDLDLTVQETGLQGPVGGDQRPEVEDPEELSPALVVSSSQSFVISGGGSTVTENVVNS
Test: Inhibitory activity on calcium-sensing receptor (CaSR), intracellular calcium increase as indicator (FLIPR, CHO/hCaSR)
Type: cell-based
Conditions: CHO cells stably expressing human CaSR; inhibition of intracellular Ca increase induced by extracellular CaCl2
Experimental: Evaluation of inhibitory activity on calcium-sensing receptor (CaSR) using intracellular calcium increase as an indicator
The preparation which is prepared by adding CHO/hCaSR to F12 medium (manufactured by Invitrogen) containing 10% fetal bovine serum to have 2×10^5 cells/mL was applied to a 384-well in an amount of 50 μL/well, and then incubated overnight in a CO2 incubator. The culture supernatant was completely removed, the assay buffer (20 mM HEPES, HBSS (Ca and Mg free) containing 2.5 mM probenecid, pH 7.4) containing Calcium 3 (manufactured by Molecular Devices), i.e., a fluorescent intracellular calcium indicator, was added thereto in an amount of 25 μL/well, and the mixture was maintained for 1 hour in a CO2 incubator. Meanwhile, Calcium 3 was prepared according to the protocol enclosed in FLIPR Calcium 3 Assay Kit (manufactured by Molecular Devices). After maintaining it for 1 hour, a solution in which the test compound is prepared to have 2.1 to 20,000 nM (final concentration of 1.05 to 10,000 nM) by an assay buffer was added thereto in an amount of 25 μL/well, and maintained for 15 minutes in a CO2 incubator. Then, the CaCl2 solution prepared to have […] by using the assay buffer was added in an amount of 25 μL/well, and the resulting intracellular Ca increase (i.e., fluorescence intensity) was measured over time using a fluorescence imaging plate reader (FLIPR, manufactured by Molecular Devices). From the data obtained, the difference between the fluorescence intensity before the addition of CaCl2 solution and the maximum fluorescence intensity after the addition of CaCl2 solution was calculated, and the 50% inhibition concentration (IC50) of the test compound was obtained.

| Structure (SMILES) | IC50 [µM] |
| --- | --- |
| C[C@@H](OC[C@H](O)CN1CCC[C@H]1Cc1ccc(Cl)c(F)c1)c1cccc(F)c1CCC(=O)O [Example 91] | ≤ 3.32 |
| Cc1ccc(C[C@@H]2CCCN2C[C@@H](O)CO[C@H](C)c2cccc(C)c2CCC(=O)O)cc1F [Example 3, 3-{2-[(1R)-1-({(2R)-3-[(2S)-2-(3-Fluoro-4-methylbenzyl)pyrrolidin-1-yl]-2-hydroxypropyl}oxy)ethyl]-6-methylphenyl}propanoic acid] | ≤ 3.5 |
| Cc1cccc([C@@H](C)OC[C@H](O)CN2CCC[C@H]2Cc2ccc(Cl)c(F)c2)c1CCC(=O)O [Example 170] | ≤ 3.35 |
| CC[C@@H](OC[C@H](O)CN1CCC[C@H]1Cc1ccc(C)c(F)c1)c1cccc(F)c1CCC(=O)O [Example 44] | ≤ 3.36 |
| Cc1ccc(C[C@@H]2CCCN2C[C@@H](O)CO[C@H](C)c2cccc(Cl)c2CCC(=O)O)cc1Cl [Example 150] | ≤ 3.24 |
| CC[C@@H](OC[C@H](O)CN1CCC[C@H]1Cc1ccc(C)c(Cl)c1)c1ccc(C)cc1CCC(=O)O [Example 136] | ≤ 3.28 |
| Cc1ccc(C[C@@H]2CCCN2C[C@@H](O)CO[C@H](C)c2cc(F)ccc2CCC(=O)O)cc1F [Example 8, 3-{4-Fluoro-2-[(1R)-1-({(2R)-3-[(2S)-2-(3-fluoro-4-methylbenzyl)pyrrolidin-1-yl]-2-hydroxypropyl}oxy)ethyl]phenyl}propanoic acid] | ≤ 3.47 |
| Cc1ccc(C[C@@H]2CCCN2C[C@@H](O)COC(C)c2c(Cl)cccc2CCC(=O)O)cc1F (stereo partly drawn) [Example 157] | ≤ 3.35 |
| CC[C@@H](OC[C@H](O)CN1CCC[C@H]1Cc1ccc(C)c(F)c1)c1cc(F)c(C)cc1CCC(=O)O [Example 69] | ≤ 3.27 |
| Cc1ccc(C[C@@H]2CCCN2C[C@@H](O)CO[C@H](C)c2ccccc2CCCCC(=O)O)cc1F [Example 13, 5-{2-[(1R)-1-({(2R)-3-[(2S)-2-(3-Fluoro-4-methylbenzyl)pyrrolidin-1-yl]-2-hydroxypropyl}oxy)ethyl]phenyl}pentanoic acid] | ≤ 3.39 |
| Cc1ccc([C@@H](C)OC[C@H](O)CN2CCC[C@H]2Cc2ccc(C)c(F)c2)c(CCC(=O)O)c1 [Example 4, 3-{2-[(1R)-1-({(2R)-3-[(2S)-2-(3-Fluoro-4-methylbenzyl)pyrrolidin-1-yl]-2-hydroxypropyl}oxy)ethyl]-5-methylphenyl}propanoic acid] | ≤ 3.5 |
| Cc1ccc(C[C@@H]2CCCN2C[C@@H](O)CO[C@H](C)c2ccccc2CCCCCC(=O)O)cc1F [Example 76] | ≤ 3.29 |
| Cc1cccc([C@@H](C)OC[C@H](O)CN2CCC[C@H]2Cc2ccc(Cl)c(Cl)c2)c1CCC(=O)O [Example 162] | ≤ 3.24 |
| Cc1ccc(C[C@@H]2CCCN2C[C@@H](O)CO[C@H](C)c2cc(F)c(F)cc2CCC(=O)O)cc1F [Example 26] | ≤ 3.34 |
| COc1cccc([C@@H](C)OC[C@H](O)CN2CCC[C@H]2Cc2ccc(Cl)c(F)c2)c1CCC(=O)O [Example 168] | ≤ 3.24 |
| Cc1ccc(C[C@@H]2CCCN2C[C@@H](O)CO[C@H](C)c2cc(F)c(C)cc2CCC(=O)O)cc1F [Example 22] | ≤ 3.36 |
| CC[C@@H](OC[C@H](O)CN1CCC[C@H]1Cc1ccc(C)c(F)c1)c1ccc(C)cc1CCC(=O)O [Example 45] | ≤ 3.39 |
| CC[C@@H](OC[C@H](O)CN1CCC[C@H]1Cc1ccc(C)c(Cl)c1)c1cccc(C)c1CCC(=O)O [Example 172] | ≤ 3.28 |
| CCc1cc(C[C@@H]2CCCN2C[C@@H](O)CO[C@H](C)c2cccc(F)c2CCC(=O)O)ccc1Cl [Example 93] | ≤ 3.25 |
| CCC[C@@H](OC[C@H](O)CN1CCC[C@H]1Cc1ccc(C)c(F)c1)c1ccccc1CCC(=O)O [Example 21] | ≤ 3.39 |
| Cc1ccc([C@@H](C)OC[C@H](O)CN2CCC[C@H]2Cc2ccc(C)c(F)c2)c(CCCCC(=O)O)c1 [Example 53] | ≤ 3.29 |
| Cc1cc(CCC(=O)O)c([C@@H](C)OC[C@H](O)CN2CCC[C@H]2Cc2ccc(C)c(Cl)c2)cc1F [Example 174] | ≤ 3.25 |
| CC[C@@H](OC[C@H](O)CN1CCC[C@H]1Cc1ccc(C)c(F)c1)c1cc(F)c(F)cc1CCC(=O)O [Example 154] | ≤ 3.24 |

Second part, the compound after the results:

| IC50 [µM] | Structure (SMILES) |
| --- | --- |
| ≤ 3.23 | CC[C@@H](OC[C@H](O)CN1CCC[C@H]1Cc1ccc(Cl)c(F)c1)c1cc(F)ccc1CCC(=O)O [Example 135] |
| ≤ 3.23 | Cc1cc(CCC(=O)O)c([C@@H](C)OC[C@H](O)CN2CCC[C@H]2Cc2ccc(Cl)c(F)c2)cc1F [Example 148] |
| ≤ 3.1 | CCOc1cccc([C@@H](C)OC[C@H](O)CN2CCC[C@H]2Cc2ccc(C)c(F)c2)c1CCCCC(=O)O [Example 72] |
| ≤ 3.17 | CC[C@@H](OC[C@H](O)CN1CCC[C@H]1Cc1ccc(C)c(Cl)c1)c1cccc(OC)c1CCC(=O)O [Example 171] |
| ≤ 3.12 | Cc1cc(CCC(=O)O)c([C@@H](C)OC[C@H](O)CN2CCC[C@H]2Cc2ccc(Cl)c(Cl)c2)cc1F [Example 175] |
| ≤ 3.14 | Cc1ccc(C[C@@H]2CCCN2C[C@@H](O)CO[C@H](C)c2cccc(OC(F)F)c2CCC(=O)O)cc1F [Example 75] |
| ≤ 3.06 | CCc1cc(C[C@@H]2CCCN2C[C@@H](O)CO[C@H](CC)c2cccc(Cl)c2CCC(=O)O)ccc1Cl [Example 114] |
| ≤ 3.12 | CC[C@@H](OC[C@H](O)CN1CCC[C@H]1Cc1ccc(Cl)c(F)c1)c1cccc(Cl)c1CCC(=O)O [Example 143] |
| ≤ 3.15 | CC[C@@H](OC[C@H](O)CN1CCC[C@H]1Cc1ccc(Cl)c(Cl)c1)c1cccc(C)c1CCC(=O)O [Example 120] |
| ≤ 3.2 | C[C@@H](OC[C@H](O)CN1CCC[C@H]1Cc1ccc(Cl)c(F)c1)c1cc(F)cc(F)c1CCC(=O)O [Example 133] |
| ≤ 3.15 | CCc1cc(C[C@@H]2CCCN2C[C@@H](O)CO[C@H](C)c2ccc(Cl)cc2CCC(=O)O)ccc1Cl [Example 161] |
| ≤ 3.09 | CCc1cc(C[C@@H]2CCCN2C[C@@H](O)CO[C@H](CC)c2cccc(OC)c2CCC(=O)O)ccc1Cl [Example 116] |
| ≤ 3.13 | COc1cccc([C@@H](C)OC[C@H](O)CN2CCC[C@H]2Cc2ccc(Cl)c(Cl)c2)c1CCC(=O)O [Example 164] |
| ≤ 3.11 | C[C@@H](OC[C@H](O)CN1CCC[C@H]1Cc1ccc(Cl)c(Cl)c1)c1ccc(Cl)cc1CCC(=O)O [Example 160] |
| ≤ 3.2 | Cc1ccc(C[C@@H]2CCCN2C[C@@H](O)CO[C@H](C)c2ccccc2CCCCCCC(=O)O)cc1F [Example 77] |
| ≤ 3.16 | CCc1cc(C[C@@H]2CCCN2C[C@@H](O)CO[C@H](CC)c2cccc(F)c2CCC(=O)O)ccc1Cl [Example 109] |
| ≤ 3.12 | CC[C@@H](OC[C@H](O)CN1CCC[C@H]1Cc1ccc(Cl)c(Cl)c1)c1cc(F)ccc1CCC(=O)O [Example 104] |
| ≤ 3.15 | CC[C@@H](OC[C@H](O)CN1CCC[C@H]1Cc1ccc(Cl)c(Cl)c1)c1ccc(C)cc1CCC(=O)O [Example 102] |
| ≤ 3.05 | CCc1cc(C[C@@H]2CCCN2C[C@@H](O)CO[C@H](CC)c2cc(F)c(F)cc2CCC(=O)O)ccc1Cl [Example 121] |
| ≤ 3.21 | C[C@@H](OC[C@H](O)CN1CCC[C@H]1Cc1ccc(Cl)c(Cl)c1)c1cccc(F)c1CCC(=O)O [Example 92] |
| ≤ 3.19 | CCC[C@@H](OC[C@H](O)CN1CCC[C@H]1Cc1ccc(C)c(F)c1)c1cccc(OC)c1CCC(=O)O [Example 65] |
| ≤ 3.2 | C[C@@H](OC[C@H](O)CN1CCC[C@H]1Cc1ccc(Cl)c(F)c1)c1cc(F)c(F)cc1CCC(=O)O [Example 149] |
